Results taken from PMC11858884 (Plants, 2025).
Where two headings read alike, the source gives them in different places.

Columns and labels:
[1] = biological target: T1, AchE (from Electrophorus electricus) (Electrophorus electricus, UniProt O42275); experiment: biochemical
T1 construct: purchased Sigma-Aldrich (Milan, Italy)
Method: The acetylcholinesterase (AchE) inhibitory activity was evaluated using a method described by Balkrishna et al. with slight modification (for details, see the Supporting Materials). […]
[…] IC50 values were calculated through a linear regression and expressed as means ± SD (standard deviation). They were considered statistically significant with values of p < 0.05.
Acetylcholinesterase inhibition assay
The assay mechanism forecasts that the AchE enzyme hydrolyses the substrate acetylthiocholine, resulting in the product “thiocholine” which reacts with Ellman’s reagent (5,5’-dithio-bis-(2-nitrobenzoic acid), DTNB) to produce 2-nitrobenzoate-5-mercaptothiocholine and 5-thio-2-nitrobenzoate (TNB); the latter can be detected at 415 nm. 150 µL of phosphate buffer (0.1 M), 20 microliters of the sample (final concentrations of 100, 200, […]
300 µM) and 20 µL of 0.2 U/mL AchE (from Electrophorus electricus) were treated in 96-well plates and […]

mushroom tyrosinase [2] = experiment: Tyrosinase inhibition assay (spectrophotometric, L-tyrosine, dopachrome at 495 nm); type: biochemical, Agaricus bisporus; settings: mushroom tyrosinase 100 U/mL, 1 mM L-tyrosine, 37 °C; mean of three experiments; read-out: Tyrosinase inhibitory activity IC50±SD
Method: The tyrosinase inhibitory activity was evaluated using a method previously described with slight modification (for details, see the Supporting Materials). […]
Tyrosinase inhibition assay
30 microliters of the sample (final concentrations of 50, 100, 200 µM) and 50 µL of 100 U/mL mushroom tyrosinase were treated in 96-well plates and incubated at 37 ◦C for 15 min. Subsequently, 50 µL of 1 mM L-tyrosine was added and then reacted at 37 ◦C for 15 min. The amount of dopachrome formed was measured at 495 nm using Thermo Scientific™ Multiskan SkyHig h Microplate Spectrophotometer. Each sample has been tested in triplicate and the tyrosinase inhibitory activity was calculated using the following equation:
Tyrosinase inhibitory activity (I%) = [1 − (S − S0)/ (C − C0)] × 100 where S is the absorbance of the sample, tyrosinase, and L-tyrosine; S0 is the absorbance of the sample and L-tyrosine; C is the absorbance of tyrosinase and L-tyrosine, and C0 is the absorbance of L-tyrosine (negative […]
control). […] IC50 values were calculated through a linear regression and expressed as means ± SD (standard deviation). They were considered statistically significant with values of p < 0.05. […]

mushroom tyrosinase [3] = experiment: Tyrosinase inhibition kinetics study (Lineweaver-Burk plot); type: biochemical, Agaricus bisporus
Method: Kinetic analysis of the tyrosinase enzyme for compound 13 was carried out using the Lineweaver–Burk double reciprocal plot. […] At 37 °C, the enzyme inhibition reaction was recorded by measuring the absorbance of the microplate reader at 495 nm for 0, 3, 6, 9, 12, and 15 min.

[4] = 0.2 U/mL AchE, acetylthiocholine, 37 °C, mean of three experiments, read-out: AchE inhibitory activity IC50±SD

T1 sequence (O42275 24-633): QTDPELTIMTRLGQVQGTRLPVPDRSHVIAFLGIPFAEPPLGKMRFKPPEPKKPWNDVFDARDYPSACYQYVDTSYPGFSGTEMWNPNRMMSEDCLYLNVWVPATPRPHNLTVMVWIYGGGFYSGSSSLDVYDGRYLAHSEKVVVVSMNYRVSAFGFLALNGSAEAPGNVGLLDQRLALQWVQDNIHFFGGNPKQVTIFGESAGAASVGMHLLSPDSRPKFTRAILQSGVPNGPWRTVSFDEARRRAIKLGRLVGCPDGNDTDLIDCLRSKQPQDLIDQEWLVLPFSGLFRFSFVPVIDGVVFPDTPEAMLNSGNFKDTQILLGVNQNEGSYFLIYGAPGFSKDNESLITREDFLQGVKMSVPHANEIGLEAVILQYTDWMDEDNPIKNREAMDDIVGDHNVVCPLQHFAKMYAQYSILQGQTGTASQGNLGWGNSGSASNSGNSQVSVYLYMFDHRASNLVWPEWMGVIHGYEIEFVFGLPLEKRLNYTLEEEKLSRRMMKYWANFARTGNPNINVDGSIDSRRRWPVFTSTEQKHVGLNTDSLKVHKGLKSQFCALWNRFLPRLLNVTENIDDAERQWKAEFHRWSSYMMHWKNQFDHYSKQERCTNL

| Compound | IC50 [1, 4] [µM] | IC50 (mushroom tyrosinase [2]) [µM] | also measured |
| --- | --- | --- | --- |
| COc1cc2ccc(=O)oc2cc1O[C@@H]1O[C@H](CO)[C@@H](O)[C@H](O)[C@H]1O [Compound 1, Scopolin] | 231 | 46.8 ± 6.34 | – |
| O=C(O)C[C@@H]1CCC(=O)[C@@H]1C/C=C\CCO[C@@H]1O[C@H](CO)[C@@H](O)[C@H](O)[C@H]1O [Compound 2, Tuberonic acid glucoside] | 343 ± 10 | 192 ± 7.92 | – |
| OC[C@H]1O[C@@H](OCCc2ccccc2)[C@H](O)[C@@H](O)[C@@H]1O [Compound 3, Phenylethyl ꞵ-D-glucopyranoside] | 281 ± 10.1 | 196 ± 7.01 | – |
| CCC(C)O[C@@H]1O[C@H](CO)[C@@H](O)[C@H](O)[C@H]1O (stereo partly drawn) [Compound 4, 1-Methylpropyl ꞵ-D-glucopyranoside] | 352 ± 9.03 | 412 ± 8.12 | – |
| C[C@@H]1O[C@@H](OC[C@H]2O[C@@H](Oc3cc(O)c4c(=O)cc(-c5ccc(O)cc5)oc4c3)[C@H](O)[C@@H](O)[C@@H]2O)[C@H](O)[C@H](O)[C@H]1O [Compound 6, Apigenin 7-O-rutinoside] | 182 | 32.1 | – |
| COc1ccc(-c2oc3cc(O[C@@H]4O[C@H](CO)[C@@H](O)[C@H](O)[C@H]4O)c(OC)c(O)c3c(=O)c2O)cc1 [Compound 7, Camaraside] | 232 ± 9.98 | 87.4 ± 5.67 | – |
| C=C1C(=O)O[C@@H]2/C=C(/C)[C@@H](O)C[C@@H](O)C(=C)C[C@H](OC(=O)/C(C)=C/C)[C@@H]12 [Compound 8, 8-Tigloylhydroxyisonobilin] | 225 | 184 ± 7.12 | – |
| O=c1cc(-c2ccc(O)cc2)oc2cc(O)cc(O)c12 [Compound 9, Apigenin] | – | – | IC50 [1]: 362 ± 10.1 µM |
| C=C1C(=O)O[C@@H]2/C=C(/C)[C@@H](O)C[C@@H](O)C(=C)C[C@H](OC(=O)/C(C)=C\C)[C@@H]12 [Compound 10, Hydroxyisonobilin] | 268 ± 12.1 | 188 ± 6.63 | – |
| C=C1C(=O)O[C@@H]2/C=C(/C)[C@H](O)C[C@@H](O)C(=C)C[C@H](OC(=O)/C(C)=C\C)[C@@H]12 [Compound 11, 3-Epi-hydroxyisonobilin] | 263 ± 11.2 | 286 ± 8.28 | – |
| C=C1C[C@H](OC(=O)/C(C)=C\C)[C@H]2C(=C)C(=O)O[C@@H]2/C=C(/C)[C@@H](O)CC1=O [Compound 12, Nobilinon A] | 244 ± 9.11 | 314 ± 8.09 | – |
| C=C1CC(OC(=O)C(C)=CC)C2C(C=C(C)C(O)CC1O)OC(=O)C2C (stereo not shown) [Compound 13, 11,13-Dihydro-8-tigloylhydroxyisonobilin] | 245 ± 9.16 | 146 | Type of tyrosinase inhibition (mushroom tyrosinase [3]; Lineweaver-Burk double reciprocal plot): uncompetitive; Vmax in the presence of the inhibitor (mushroom tyrosinase [3]; inhibitor 53.52 µg/mL, L-tyrosine 1-0.125 mM, control Vmax 42.02 µM/min): 27.25 µM/min |
| C=C1C(=O)O[C@@H]2/C=C(/C)[C@@H](O)C/C=C(\C)C[C@H](OC(=O)/C(C)=C\C)[C@@H]12 [Compound 14, Nobilin] | – | 297 ± 7.23 | IC50 ([1]; read-out: AchE inhibitory activity IC50±SD): 304 µM |
| COc1ccc(-c2cc(=O)c3c(O)c(OC)c(O)cc3o2)cc1 [Compound 15, 5,7-Dihydroxy-6-methoxy-2-(4-methoxyphenyl)-4H-1-benzopyran-4-one] | 190 | 212 ± 6.76 | – |
| ꞵ-D-Glucopyranose, 1-[(2 Z)-2 methyl-2-butenoate] [Compound 5] | 388 ± 11.1 | 299 ± 7.86 | – |
